Source: patent publication US11576901B2, “Methods for treating viral infection” (HOWARD UNIVERSITY, priority 2016, dated 2023)

Experiments:
[1] = test system: HIV1 modified pNL4-3.Luc.R-E-virus; assay: Western assay of HIV p24 gag expression in infected CEM T cells; type: cell-based; conditions: Western assay with HIV p24 antibody, FIG. 4
From the text: The ability of a compound in accordance with General Formula 1, including derivatives in accordance with General Formulae 1-1 to 1-20, or pharmaceutically acceptable salts thereof, to inhibit the expression of at least a portion of a virus genome containing an IRES sequence can be also be determined by assessing the expression of a native protein within a viral genome. In some embodiments, the ability of a compound or pharmaceutically acceptable salt to inhibit expression of native protein can be assessed by using antibodies for a protein normally expressed from the virus genome. For example, HIV p24 gag is a protein normally expressed by HIV1 that can be detected using the HIVI p24 antibody. Accordingly, compounds in accordance with General Formula 1, including derivatives in accordance with any of General Formulae 1-1 to 1-20, or pharmaceutically acceptable salts thereof, can be assessed for the ability to inhibit proliferation of the HIV1 by infecting CEM T cells with the HIV1 modified pNL4-3.Luc.R-E-virus and assessing the expression of HIV p24 gag with the HIV p24 antibody. […]
A compound or salt may be wrongly classified as capable of inhibiting expression of at least a portion of a virus genome containing an IRES sequence due to unequal loading of proteins within an assay. […] In some embodiments, equivalent protein loading can be assessed by ponceau staining. […]

HSV-1 = assay: Plaque forming assay, Hep-2 cell monolayers infected with HSV-1; type: cell-based; conditions: Hep-2 cells, 100 μM
Method: The ability of a virus to infect cells can be assessed using a plaque assay. In a plaque assay, an infected cell culture is grown under a nutrient gel. During culturing, the virus being study infects cells and replicates. However, the spread of virus to other cells is limited by the overlaying nutrient gel. As such, replicated virus released from one infected cell can only infect neighboring cells. The spread of virus amongst neighboring cells creates a plaque that can be visualized by staining. By counting the visible plaques, the amount of plaque forming units (pfu) per mL can be determined. If cells treated with a compound display a reduced amount of pfu compared to cells not treated with the compound after being infected with same amount of viral particles, then the reduction in pfu would have to be result of the ability of the […] virus. Thus, the ability of a compound in accordance with General Formula 1, including derivatives in accordance with any of General Formulae 1-1 to 1-20, to inhibit the ability of HSV-1 to proliferate can be assessed with a plaque assay.
Hep-2 cell monolayers were placed in well plates. The plated Hep-2 cells were treated with either DSMO as a control, 100 μM SD-29 or 100 μM SD29-12. A total of 6 well plates were prepared for each treatment condition. To each treated well plate an HSV-1 infecting solution comprising 1 mL of supernatants containing of the same amount of serially diluted HSV-1 particles were added. Accordingly, the treated well plates were infected with infection solutions containing the same amount of HSV-1 particles. After adsorption for 2 hours, the medium was removed and the treated cells were washed twice with serum-free DMEM and overlaid with phenol-free DMEM containing 5% FCS, 0.5% low-melting point agarose (GIBCO), and 1% penicillin-streptomycin. After either 0, 6, 12, 24 hours, the plaques present in each treated well plate were stained red and the number of plaques presented counted. Table 1 reports the mean plaque forming unit (pfu) determined for each treated well plate after averaging the number of pfu from the different plates receiving the same treatment.

melting point | Structure (SMILES) | expression of HIV p24 gag [1] | mean plaque forming unit (pfu) (HSV-1; 0 hpi) | mean plaque forming unit (pfu) (HSV-1; 6 hpi) | mean plaque forming unit (pfu) (HSV-1; 12 hpi) | mean plaque forming unit (pfu) (HSV-1; 24 hpi)
220 °C | Nn1c(-c2cccc(F)c2)n[nH]c1=S [5e, 4-amino-5-(3-fluorophenyl)-2,4-dihydro-3H-1,2,4-triazole-3-thione] | – | – | – | – | –
– | COc1ccc(-c2nnc(SCC(=O)O)n2N)cc1 [SD-29-12] | does not inhibit expression of HIV p24 gag | 0 pfu | 380 pfu | 3600 pfu | 2600000 pfu
